According to patent US10982188B2, “Synthetic retina” (University of Newcastle Upon Tyne, priority 2014, dated 2021):
Values belong to the compound of their own block, whether it stands above or below them.

What was measured:
[1] = tested on: hESC and hiPSC derived photoreceptors; assay: Calcium imaging (Fura-2) of cGMP response; assay type: cell-based, human; settings: for effect on cGMP-mediated increase in Ca2+ influx: cobalt chloride and magnesium chloride together in the perfusate with cGMP
Source text: In order to determine whether developing photoreceptors contained the machinery necessary for transduction, the inventors plated differentiating EBs onto poly-L-ornithine and laminin-coated 6 well plates for 15 days prior to optical recording using calcium imaging. Membrane disks in the outer segment of native photoreceptors contain a photopigment (for example the rod-specific pigment rhodopsin consists of opsin+retinal), and the cell membrane in outer segments contains cyclic guanosine monophosphate (cGMP)-gated cationic (sodium and calcium) channels. In the dark, cGMP levels are high and the photoreceptors are maintained in a depolarised state via influx of Na^+ and Ca^2+ through these cGMP-gated channels which are in an open state. Exposure to light causes the retinal part of the photopigment to isomerise to trans-retinal, leading to activation of multiple G-proteins and phosphodiesterase 6 which in turns degrades cGMP, resulting in closure of the channels and membrane hyperpolarisation. To test if the hESC and hiPSC derived photoreceptors respond in a similar manner, on day 30, 45 and 60 of differentiation, cells were exposed to flashes of red, green, blue or white light, or to membrane-permeable 8-br-cGMP. As 8-br-cGMP opens the cationic (Na^+ and Ca^2+) channel associated with phototransduction, it triggers a Ca^2+ influx in photoreceptors known as the inward dark current. Loading cells with the fluorescent Ca^2+ indicator Fura-2 therefore enables the visualisation of changes in intracellular calcium associated with opening or closing of the cGMP-gated channel, with a decrease in fluorescence representing an increase in calcium influx.
EBs were dark adapted for 24 hours prior to recording then loaded with Fura-2 AM (10 μM, Molecular probes/Invitrogen) for 45 min at 37° C. (95% O2/5% CO2) followed by perfusion (1 ml/minute) with oxygenated artificial Cerebrospinal Fluid (aCSF; 118 mM NaCl, 25 mM NaHCO3, 1 mM NaH2PO4, 3 mM KCl, 1 mM MgCl2, 2 mM CaCl2, 10 mM glucose) for one hour. Cells were exposed to 8-br-cGMP (cGMP, 1 mM, Sigma) in aCSF. Control recordings were performed with aCSF alone or with 8-br-cGMP in CaCl2-free aCSF supplemented with calcium channel blocker Cobalt (II) chloride (CoCl2, 4 mM, AnalaR) and 10 mM HEPES. Fluorescence was monitored using an inverted Olympus IX71 microscope and images (excitation 380 nm, 800 ms exposure) acquired using a Quantem 512SC camera (Photometrics) and MetaMorph Software (Molecular Devices). For each stimulation 20 seconds baseline activity was recorded. Fluorescence change was analysed using the formula % Δl/lo=(l1−lo)×100/lo, where lo was the average cellular fluorescence during baseline activity and l1 following stimulation. Significance was determined using a student's t-test (P<0.01).

[2] = molecular target: T1, IGF-IR (Homo sapiens, UniProt P08069); assay: IGF-1 receptor signalling interference: optic vesicle/optic cup formation and survival of EBs; assay type: cell-based; settings: for optic vesicle production from differentiating EBs: 7 μM
T1 construct: endogenous in cells; host or cells: hESC (line H9, WiCell)-derived embryoid bodies
T1 sequence (P08069 31-1367): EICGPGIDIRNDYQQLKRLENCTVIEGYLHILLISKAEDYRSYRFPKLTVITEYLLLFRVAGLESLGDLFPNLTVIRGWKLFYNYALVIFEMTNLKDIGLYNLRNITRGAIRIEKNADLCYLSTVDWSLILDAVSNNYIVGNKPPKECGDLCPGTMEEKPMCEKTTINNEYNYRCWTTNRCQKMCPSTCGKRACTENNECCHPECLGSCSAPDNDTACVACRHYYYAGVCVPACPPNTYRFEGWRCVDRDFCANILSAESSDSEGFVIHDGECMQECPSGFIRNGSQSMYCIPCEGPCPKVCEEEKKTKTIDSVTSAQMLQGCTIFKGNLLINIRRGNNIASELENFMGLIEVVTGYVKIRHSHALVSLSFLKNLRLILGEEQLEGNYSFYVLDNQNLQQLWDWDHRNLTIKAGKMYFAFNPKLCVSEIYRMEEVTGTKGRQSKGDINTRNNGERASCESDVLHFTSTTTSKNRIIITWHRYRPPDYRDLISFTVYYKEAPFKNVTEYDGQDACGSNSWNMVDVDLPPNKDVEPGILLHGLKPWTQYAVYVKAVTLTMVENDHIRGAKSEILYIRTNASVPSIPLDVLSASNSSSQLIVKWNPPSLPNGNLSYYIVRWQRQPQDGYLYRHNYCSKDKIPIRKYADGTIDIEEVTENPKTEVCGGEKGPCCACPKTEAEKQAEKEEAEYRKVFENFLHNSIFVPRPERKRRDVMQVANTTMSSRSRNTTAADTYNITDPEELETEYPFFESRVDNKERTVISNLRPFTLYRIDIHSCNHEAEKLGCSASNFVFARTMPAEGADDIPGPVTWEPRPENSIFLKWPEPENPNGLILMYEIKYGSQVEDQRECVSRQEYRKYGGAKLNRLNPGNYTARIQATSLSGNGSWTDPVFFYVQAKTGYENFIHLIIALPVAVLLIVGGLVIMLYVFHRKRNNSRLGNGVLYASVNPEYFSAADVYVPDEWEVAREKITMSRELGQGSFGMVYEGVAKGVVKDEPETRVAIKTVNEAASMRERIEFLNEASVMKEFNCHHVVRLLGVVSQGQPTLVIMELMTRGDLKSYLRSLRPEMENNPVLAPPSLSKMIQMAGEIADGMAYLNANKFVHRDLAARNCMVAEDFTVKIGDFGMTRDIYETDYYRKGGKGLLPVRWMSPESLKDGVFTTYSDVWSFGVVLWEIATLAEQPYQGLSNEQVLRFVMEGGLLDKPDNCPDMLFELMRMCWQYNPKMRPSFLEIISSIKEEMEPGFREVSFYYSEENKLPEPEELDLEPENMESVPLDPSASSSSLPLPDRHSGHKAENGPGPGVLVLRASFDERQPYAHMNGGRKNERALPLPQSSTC
Experimental: To confirm the contribution of the IGF-1 signalling pathway in this process, the inventors differentiated cells in the presence of a pharmacological inhibitor of the IGF-IR (pi(IR)) or a neutralising antibody directed against the IGF-II receptor, IGF-IIR ((n)IIR), in the presence (+) or absence (−) of IGF-1 supplementation (FIG. 5I, J).
hESCs were expanded and differentiated as described. For interference of IGF-1 receptor signalling an IGF-IR-specific pharmacological inhibitor ([7 μM], AG1024, Stratech) was added to differentiation media for the entire differentiation period. To block/neutralise IGF-II receptor signalling, media was supplemented with goat IgG anti-human IGF-IIR antibody ([0.25 μg/ml], AF2447, R&D) throughout differentiation.

[3] = tested on: differentiating hESCs; assay: Optic vesicle and optic cup formation from EBs differentiated in 3D with IGF-1; assay type: cell-based, human
Experimental: hESC (line H9, WiCell) and hiPSC lines Clone 4^25 and NHDF^26 were expanded and differentiated as previously described.^14 For IGF-1 treatment, cultures were differentiated in VNIM media^14 supplemented with recombinant human IGF-1 (5 ng/ml, Sigma) until day 37, then in basal Knockout serum-free media^14 with 10 ng/ml IGF-1 until day 90 (FIG. 1A). Control cultures were differentiated in parallel in the absence of IGF-1. Time-lapse capture of culture morphology was achieved using a BioStation CT (Nikon).

[4] = tested on: human pluripotent stem cells; assay: Modified differentiation media, mTeSR1 feeder-free adapted cells: optic cup formation; assay type: cell-based; settings: 2 and 3 fold increase in IGF-1 concentration, FIG. 15
Experimental: Human pluripotent stem cells were grown under feeder free conditions the effect of freeder free conditions on their differentiation potential to synthetic retina investigated.
mTeSR1 media (Stem Cell Technologies) is a highly specialised serum-free and complete media designed for feeder-free culture. Cells to this feeder-free technique and subjected to differentiation studies using the IGF-1 factor as discussed above.

Fura-2 fluorescence change (Ca2+ influx) ([1]; IGF-1 treated cultures, 1 mM in aCSF): decreased fluorescence
Compound: Nc1nc2c(nc(Br)n2[C@@H]2O[C@@H]3COP(=O)(O)O[C@H]3[C@H]2O)c(=O)[nH]1 [8-br-cGMP]

Compound: CC(C)(C)c1cc(C=C(C#N)C#N)cc(Br)c1O [(pi)IR]
viability of cultures ([2]; after day 45, with and without exogenous IGF-1): did not remain viable | optic cups ([2]; day 45): undetectable | optic vesicle production from differentiating EBs ([2]; day 45, absence of IGF-1 ((pi)IR-), p=0.021): significantly reduced | optic vesicle production from differentiating EBs ([2]; day 45, presence of IGF-1 ((pi)IR+), p=0.023): significantly reduced | survival of EBs ([2]; days of differentiation, with and without IGF-1): ≤ 50 days

Compound: [Cl-].[Cl-].[Co+2] [cobalt chloride, Cobalt (II) chloride]
effect on cGMP-mediated increase in Ca2+ influx [1]: abolished

Compound: [Cl-].[Cl-].[Mg+2] [magnesium chloride]
effect on cGMP-mediated increase in Ca2+ influx [1]: abolished

cGMP respondent cultures ([1]; by day 90, 8-br-cGMP stimulation): 45.3% | cGMP respondent cultures ([1]; day 45 of differentiation, 8-br-cGMP stimulation): 24.1%
Compound: IGF-1: recombinant human IGF-1 (Sigma), single-chain 70-amino-acid protein, SEQ ID NO:1
frequency of optic vesicle formation ([3]; IGF-1 in differentiation media vs control, FIG. 5I): significantly increased | optic vesicle formation relative to control levels ([3]; by day 15): double | increase in optic vesicle and optic cup formation vs control ([3]; by day 60): 4 fold | EBs with optic cup formation ([3]; day 60, FIG. 5J, control 3.9%): 17.4% | formation of optic cups on increasing concentration [4]: did not cause any significant changes
